Our source for the Efficacy and EC50 values is patent publication US8822451B2, “Modulators of ATP-binding cassette transporters” (Vertex Pharmaceuticals Incorporated, priority 2005, dated 2014).

The experiment has as its target T1, […]F508-CFTR (Homo sapiens, UniProt P13569, DEL508-508).
T1 construct: expressed in transfected cells
In words: Assay results of Table 3: ΔF508-CFTR modulation, membrane potential optical assay (assay format not stated). The note with it: NIH3T3 mouse fibroblasts stably expressing […]F508-CFTR (optical assays); for Efficacy: efficacy range; for EC50: potency range. In kind it is cell-based. The text has this:
A. Membrane Potential Optical Methods for Assaying […]F508-CFTR Modulation Properties of Compounds
The optical membrane potential assay utilized voltage-sensitive FRET sensors described by Gonzalez and Tsien (See, Gonzalez, J. E. and R. Y. Tsien (1995) “Voltage sensing by fluorescence resonance energy transfer in single cells” Biophys J 69(4): 1272-80, and Gonzalez, J. E. and R. Y. Tsien (1997) “Improved indicators of cell membrane potential that use fluorescence resonance energy transfer” Chem Biol 4(4): 269-77) in combination with instrumentation for measuring fluorescence changes such as the Voltage/Ion Probe Reader (VIPR) (See, Gonzalez, J. E., K. Oades, et al. (1999) “Cell-based assays and instrumentation for screening ion-channel targets” Drug Discov Today 4(9): 431-439).
These voltage sensitive assays are based on the change in fluorescence resonant energy transfer (FRET) between the membrane-soluble, voltage-sensitive dye, DiSBAC2(3), and a fluorescent phospholipid, CC2-DMPE, which is attached to the outer leaflet of the plasma membrane and acts as a FRET donor. Changes in membrane potential (Vm) cause the negatively charged DiSBAC2(3) to redistribute across the plasma membrane and the amount of energy transfer from CC2-DMPE changes accordingly. The changes in fluorescence emission were monitored using VIPR™ II, which is an integrated liquid handler and fluorescent detector designed to conduct cell-based screens in 96- or 384-well microtiter plates.
To identify small molecules that correct the trafficking defect associated with ΔF508-CFTR; a single-addition HTS assay format was developed. The cells were incubated in serum-free medium for 16 hrs at 37° C. in the presence or absence (negative control) of test compound. As a positive control, cells plated in 384-well plates were incubated for 16 hrs at 27° C. to “temperature-correct” […]F508-CFTR. The cells were subsequently rinsed 3× with Krebs Ringers solution and loaded with the voltage-sensitive dyes. To activate […]F508-CFTR, 10 µM forskolin and the CFTR potentiator, genistein (20 µM), were added along with Cl^−-free medium to each well. The addition of Cl^−-free medium promoted Cl^− efflux in response to […]F508-CFTR activation and the resulting membrane depolarization was optically monitored using the FRET-based voltage-sensor dyes.
To identify potentiators of […]F508-CFTR, a double-addition HTS assay format was developed. During the first addition, a Cl^−-free medium with or without test compound was added to each well. After 22 sec, a second addition of Cl^−-free medium containing 2-10 µM forskolin was added to activate […]F508-CFTR. The extracellular Cl^− concentration following both additions was 28 mM, which promoted Cl^− efflux in response to […]F508-CFTR activation and the resulting membrane depolarization was optically monitored using the FRET-based voltage-sensor dyes.
Bath Solution #1: (in mM) NaCl 160, KCl 4.5, CaCl2 2, MgCl2 1, HEPES 10, pH 7.4 with NaOH.
Chloride-free bath solution: Chloride salts in Bath Solution #1 are substituted with gluconate salts.
CC2-DMPE: Prepared as a 10 mM stock solution in DMSO and stored at −20° C.
DiSBAC2(3): Prepared as a 10 mM stock in DMSO and stored at −20° C.
NIH3T3 mouse fibroblasts stably expressing […]F508-CFTR are used for optical measurements of membrane potential. The cells are maintained at 37° C. in 5% CO2 and 90% humidity in Dulbecco's modified Eagle's medium supplemented with 2 mM glutamine, 10% fetal bovine serum, 1× NEAA, […]-ME, 1× pen/strep, and 25 mM HEPES in 175 cm^2 culture flasks. For all optical assays, the cells were seeded at 30,000/well in 384-well matrigel-coated plates and cultured for 2 hrs at 37° C. before culturing at 27° C. for 24 hrs for the potentiator assay. For the correction assays, the cells are cultured at 27° C. or 37° C. with and without compounds for 16-24 hoursB.

The structures appear in SMILES notation.

T1 sequence (P13569 with tags, fused parts or gaps DEL508-508): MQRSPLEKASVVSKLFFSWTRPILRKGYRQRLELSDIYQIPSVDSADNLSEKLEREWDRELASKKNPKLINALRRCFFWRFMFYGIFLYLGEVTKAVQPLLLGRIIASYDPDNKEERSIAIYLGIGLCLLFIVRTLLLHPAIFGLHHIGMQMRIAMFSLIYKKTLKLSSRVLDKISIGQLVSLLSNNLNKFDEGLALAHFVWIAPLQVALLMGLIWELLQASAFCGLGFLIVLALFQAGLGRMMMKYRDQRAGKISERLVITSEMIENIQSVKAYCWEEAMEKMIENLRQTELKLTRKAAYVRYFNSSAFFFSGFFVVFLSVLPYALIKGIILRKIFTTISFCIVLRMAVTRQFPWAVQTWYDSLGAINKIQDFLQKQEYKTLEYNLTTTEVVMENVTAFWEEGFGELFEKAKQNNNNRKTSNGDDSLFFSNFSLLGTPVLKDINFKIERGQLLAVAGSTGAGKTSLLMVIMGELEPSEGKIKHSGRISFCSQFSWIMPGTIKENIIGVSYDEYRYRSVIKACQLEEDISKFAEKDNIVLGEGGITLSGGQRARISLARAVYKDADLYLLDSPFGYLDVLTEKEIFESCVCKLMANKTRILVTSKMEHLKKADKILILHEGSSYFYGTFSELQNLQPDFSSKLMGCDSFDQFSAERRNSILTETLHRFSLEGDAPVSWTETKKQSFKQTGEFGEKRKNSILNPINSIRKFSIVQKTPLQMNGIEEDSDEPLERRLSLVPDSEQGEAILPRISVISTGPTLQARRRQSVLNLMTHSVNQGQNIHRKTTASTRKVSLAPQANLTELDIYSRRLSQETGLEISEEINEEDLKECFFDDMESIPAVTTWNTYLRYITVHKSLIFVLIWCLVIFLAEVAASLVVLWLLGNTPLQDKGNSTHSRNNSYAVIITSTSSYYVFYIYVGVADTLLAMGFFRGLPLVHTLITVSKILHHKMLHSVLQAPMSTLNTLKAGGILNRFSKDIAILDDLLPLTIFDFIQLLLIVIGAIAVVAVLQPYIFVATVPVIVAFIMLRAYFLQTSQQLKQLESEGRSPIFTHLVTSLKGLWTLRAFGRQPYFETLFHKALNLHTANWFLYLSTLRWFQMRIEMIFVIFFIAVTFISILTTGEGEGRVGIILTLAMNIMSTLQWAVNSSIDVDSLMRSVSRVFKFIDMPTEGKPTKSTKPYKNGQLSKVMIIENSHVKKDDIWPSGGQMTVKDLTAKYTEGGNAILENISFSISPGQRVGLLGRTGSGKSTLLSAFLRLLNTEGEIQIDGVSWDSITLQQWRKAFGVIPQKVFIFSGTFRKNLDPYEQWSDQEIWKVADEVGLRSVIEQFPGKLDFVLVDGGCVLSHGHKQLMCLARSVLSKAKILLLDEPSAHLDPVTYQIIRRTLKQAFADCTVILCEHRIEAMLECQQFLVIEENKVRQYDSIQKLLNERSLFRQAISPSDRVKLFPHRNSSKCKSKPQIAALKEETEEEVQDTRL

Regarding `C#CCN(C)c1nc(C(N)=O)cc(-c2ccccc2)n1` [Compound 204], the Efficacy result is “++ (++ corresponds to Efficacy between 100 and 50)”; the EC50 was in the range of 1 to 5 µM.

With `CCN(CC)c1nc(C(N)=O)cc(-c2ccc(Cl)cc2Cl)n1` [Compound 200], the Efficacy result was “++ (++ corresponds to Efficacy between 100 and 50)”; the concentration for a half-maximal effect (EC50) was < 1 µM.

For `NC(=O)c1cc(-c2ccccc2)nc(-n2ccnc2)n1` [Compound 58], the Efficacy entry is “+ (+ corresponds to Efficacy less than 50)” and the EC50 was > 5 µM.

`NC(=O)c1cc(-c2cccc(Cl)c2Cl)nc(N2CCCCC2)n1` [Compound 95]: the Efficacy entry was “++ (++ corresponds to Efficacy between 100 and 50)”; the EC50 lay in the range of 1 to 5 µM.

Take `COc1ccccc1-c1cc(C(N)=O)nc(N2CC=CCC2)n1` [Compound 135]: the Efficacy entry was “++ (++ corresponds to Efficacy between 100 and 50)”; the EC50 was > 5 µM.

Regarding `CC(C)CCN(CCC(C)C)c1nc(C(N)=O)cc(-c2ccccc2)n1` [Compound 104], the Efficacy entry is listed as “+ (+ corresponds to Efficacy less than 50)” and the half-maximal effective concentration (EC50) lay in the range of 1 to 5 µM.

As to `C=C(C)CN(CC)c1nc(C(N)=O)cc(-c2ccccc2)n1` [Compound 188], the Efficacy entry is “+++ (+++ corresponds to Efficacy greater than 100)” and the EC50 was < 1 µM.

`CCN(C)c1nc(C(N)=O)cc(-c2ccccc2)n1` [Compound 7]: the Efficacy result is on record as “+++ (+++ corresponds to Efficacy greater than 100)” and the EC50 fell in the range of 1 to 5 µM.

Take `CCCN(CC)c1nc(C(N)=O)cc(-c2ccccc2)n1` [Compound 34]: the Efficacy entry is on record as “+++ (+++ corresponds to Efficacy greater than 100)” and the EC50 is 1 to 5 µM.

For `CC1CCN(c2nc(C(N)=O)cc(-c3ccccc3)n2)CC1` [Compound 165], the Efficacy entry is recorded as “+++ (+++ corresponds to Efficacy greater than 100)” and the EC50 was > 5 µM.

As to `CCN(CC)c1nc(C(N)=O)cc(-c2cc(F)ccc2OC)n1` [Compound 133], the Efficacy result is “++ (++ corresponds to Efficacy between 100 and 50)”; the EC50 was < 1 µM.

Regarding `CN(CC#N)c1nc(C(N)=O)cc(-c2ccccc2)n1` [Compound 83], the Efficacy entry is “+ (+ corresponds to Efficacy less than 50)” and the EC50 was > 5 µM.

Regarding `CCCN(CC1CC1)c1nc(C(N)=O)cc(-c2ccc(OC)cc2)n1` [Compound 197], the Efficacy entry is “++ (++ corresponds to Efficacy between 100 and 50)”; the EC50 lay in the range of 1 to 5 µM.

On to `CCN(CC)c1nc(C(N)=O)cc(-c2ccc(F)cc2F)n1` [Compound 107], for which the Efficacy result was “++ (++ corresponds to Efficacy between 100 and 50)”; the EC50 was < 1 µM.

In the case of `CCN(CC)c1nc(C(N)=O)cc(-c2ccc(F)cc2)n1` [Compound 67], the Efficacy result is reported as “+++ (+++ corresponds to Efficacy greater than 100)” and the EC50 lay within 1 to 5 µM.

For `CNC(=O)c1cc(-c2ccccc2)nc(N2CCCCC2)n1` [Compound 232], the Efficacy entry is recorded as “+ (+ corresponds to Efficacy less than 50)” and the EC50 lay in the range of 1 to 5 µM.

Regarding `NC(=O)c1cc(-c2ccccc2)nc(N2CCCC(CO)C2)n1` (centres unmarked) [Compound 43], the Efficacy result is listed as “+ (+ corresponds to Efficacy less than 50)” and the EC50 is > 5 µM.

For `CCN(CC)c1nc(C(N)=O)cc(-c2cccc(CO)c2)n1` [Compound 158], the Efficacy entry was “++ (++ corresponds to Efficacy between 100 and 50)”; the EC50 was > 5 µM.

Regarding `NC(=O)c1cc(-c2ccccc2)nc(N(Cc2ccccc2)Cc2ccccc2)n1` [Compound 92], the Efficacy result was “++ (++ corresponds to Efficacy between 100 and 50)”; the EC50 lay in the range of 1 to 5 µM.

For the compound `CN(CCc1c[nH]c2ccccc12)c1nc(C(N)=O)cc(-c2ccccc2)n1` [Compound 63], the Efficacy entry is “++ (++ corresponds to Efficacy between 100 and 50)”; the EC50 lay within 1 to 5 µM.

On to `NC(=O)c1cc(-c2ccoc2)nc(N2CCCCC2)n1` [Compound 25], for which the Efficacy result is given as “+ (+ corresponds to Efficacy less than 50)” and the EC50 is > 5 µM.

On to `CCCCN(CCCC)c1nc(C(N)=O)cc(-c2ccccc2)n1` [Compound 171], for which the Efficacy result was “++ (++ corresponds to Efficacy between 100 and 50)”; the EC50 is < 1 µM.

Regarding `NC(=O)c1cc(-c2ccccc2)nc(N2CCOCC2)n1` [Compound 167], the Efficacy result is “++ (++ corresponds to Efficacy between 100 and 50)”; the EC50 was > 5 µM.

As for `CC(C)CN(C)c1nc(C(N)=O)cc(-c2ccccc2)n1` [Compound 159], the Efficacy result is “+++ (+++ corresponds to Efficacy greater than 100)” and the EC50 was in the range of 1 to 5 µM.

For the compound `NC(=O)c1cc(-c2ccccc2)nc(N2CCC(n3c(=O)[nH]c4ccccc43)CC2)n1` [Compound 139], the Efficacy result was “++ (++ corresponds to Efficacy between 100 and 50)”; the concentration giving a half-maximal response (EC50) is > 5 µM.

For `CCOc1ccccc1-c1cc(C(N)=O)nc(N2CCCCC2)n1` [Compound 127], the Efficacy entry was “++ (++ corresponds to Efficacy between 100 and 50)”; the EC50 lay in the range of 1 to 5 µM.

Consider `COc1ccc(C(C)C)cc1-c1cc(C(N)=O)nc(N2CCCCC2)n1` [Compound 224], for which the Efficacy result was “+ (+ corresponds to Efficacy less than 50)” and the EC50 was > 5 µM.

For `CCN(CC)c1nc(C(N)=O)cc(-c2csc3ccccc23)n1` [Compound 214], the Efficacy result is “++ (++ corresponds to Efficacy between 100 and 50)”; the EC50 was < 1 µM.

As for `CCN(CC)c1nc(C(N)=O)cc(-c2cc(F)ccc2F)n1` [Compound 163], the Efficacy entry is “++ (++ corresponds to Efficacy between 100 and 50)”; the EC50 is < 1 µM.

On to `CCN(CCO)c1nc(C(N)=O)cc(-c2cccc(OC)c2)n1` [Compound 123], for which the Efficacy entry is recorded as “+ (+ corresponds to Efficacy less than 50)” and the EC50 is > 5 µM.

As for `COc1cccc(-c2cc(C(N)=O)nc(N3CCCCC3)n2)c1F` [Compound 105], the Efficacy result is reported as “+++ (+++ corresponds to Efficacy greater than 100)” and the EC50 was > 5 µM.

`NC(=O)c1cc(-c2ccccc2)nc(CC2CCCCC2)n1` [Compound 136]: the Efficacy entry is “++ (++ corresponds to Efficacy between 100 and 50)”; the EC50 is > 5 µM.

`CC1CN(c2nc(C(N)=O)cc(-c3ccccc3)n2)CC(C)O1` (centres unmarked) [Compound 134]: the Efficacy entry is “++ (++ corresponds to Efficacy between 100 and 50)”; the EC50 was > 5 µM.

As for `NC(=O)c1cc(-c2ccccc2)nc(N2CCCCCC2)n1` [Compound 68], the Efficacy entry was “++ (++ corresponds to Efficacy between 100 and 50)”; the EC50 lay in the range of 1 to 5 µM.

Consider `CCN(CC)c1nc(C(N)=O)cc(-c2cccc(C(F)(F)F)c2)n1` [Compound 75], for which the Efficacy result is “++ (++ corresponds to Efficacy between 100 and 50)”; the EC50 was < 1 µM.

As for `CCN(CC)c1nc(C(N)=O)cc(-c2cccc(C)c2)n1` [Compound 56], the Efficacy entry is recorded as “+++ (+++ corresponds to Efficacy greater than 100)” and the EC50 is 1 to 5 µM.

For `CCN(CC)c1nc(C(N)=O)cc(-c2c(F)cccc2F)n1` [Compound 125], the Efficacy result was “++ (++ corresponds to Efficacy between 100 and 50)”; the EC50 is < 1 µM.
